These results are taken from patent publication US20240150342A1, “ESTROGEN-RELATED RECEPTOR ALPHA MODULATORS” (LEAD PHARMA HOLDING B.V., priority 2019, published 2024).

The target in this test is T1, ERRα ligand binding domain (ERRα-LBD) (Homo sapiens, UniProt P11474).
T1 construct: made in house; host or cells: E. coli
T1 sequence (P11474 193-421 limits assumed): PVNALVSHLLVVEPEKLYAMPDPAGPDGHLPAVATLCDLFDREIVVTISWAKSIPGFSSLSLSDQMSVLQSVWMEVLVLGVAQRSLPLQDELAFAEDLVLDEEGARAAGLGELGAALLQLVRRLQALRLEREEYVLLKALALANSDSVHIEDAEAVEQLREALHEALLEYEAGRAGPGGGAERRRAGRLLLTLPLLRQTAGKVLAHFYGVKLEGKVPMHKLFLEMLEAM
As to the kind of experiment: ERRα AlphaScreen Assay. The class given is biochemical. The conditions noted are these: disruption of binding of ERRα-LBD protein to biotin-PGC1α-3 co-activator peptide; read-out: mean pIC50 (converted). The source says: This assay was based on the knowledge that nuclear receptors interact with cofactors in a ligand dependent matter. The sites of interaction have been mapped to LXXLL motifs that are present in the co-activator sequences. Short peptide sequences that contain the LXXLL motif mimic the behavior of full length co-activators.
The ERRα AlphaScreen Assay described here relies on the interaction of the co-activator peptide with purified bacterial- expressed ERRα ligand binding domain (ERRα-LBD); upon ligand binding, the ERRα protein can undergo a conformational change resulting in a loss of co-activator binding.
Compounds of the present invention were tested for their ability to disrupt binding of ERRα-LBD protein to co-activator peptide using AlphaScreen® Technology (Perkin Elmer). ERRα-LBD protein was expressed in E. coli as a 6×His Small Ubiquitin-like Modifier (SUMO) fusion. Bacterial expressed 6His-SUMO-ERRα-LBD protein was purified using affinity chromatography. All experiments were performed at room temperature in 384-well white non-binding plates (Greiner) using 50 mM Tris-HCl pH 7.5, 100 mM NaCl, 0.1% Pluronic F-127, 0.05% BSA and 5 mM TCEP as the buffer. Final DMSO concentration was 1% in the assay. Compounds were assayed in triplicate and: incubated with 0.81 nM ERRα-LBD protein and 10 μg/mL streptavidin donor beads and 10 μg/mL Ni-chelate acceptor beads for 1 hour at room temperature; followed by a 2-hour incubation with 15 nM biotin-PGC1α-3 peptide (QRRPCSELLKYLTTNDDPP) corresponding to amino acids 202 to 220.
The AlphaScreen signal was measured using an Envision Xcite plate reader (Perkin Elmer). Data was normalized, and curve fitting analysis was performed in GraphPad Prism 7 using a four-parameter dose-response fit.
(Bead proximity is the source of the signal in Alpha formats.)
`COc1cc(C2CC(=O)Nc3n[nH]cc32)ccc1Oc1ccc(C#N)c2ccccc12` (stereo not shown) [Example 46, 4-(2-methoxy-4-{6-oxo-2H,4H,5H,6H,7H-pyrazolo[3,4-b]pyridin-4-yl}phenoxy)naphthalene-1-carbonitrile]: the IC50 was 0.01 to 0.1 µM.

As to `COc1cc(C2CC(=O)Nc3n[nH]cc32)ccc1Oc1cccc2c1CCC2` (stereo not shown) [Example 47, 4-[4-(2,3-dihydro-1H-inden-4-yloxy)-3-methoxyphenyl]-2H,4H,5H,6H,7H-pyrazolo[3,4-b]pyridin-6-one], the IC50 was 0.01 to 0.1 µM.

Consider `COc1cc(C2CC(=O)Nc3n[nH]cc32)ccc1Oc1cccc2c1OC(C)(C)C2` (stereo not shown) [Example 48, 4-{4-[(2,2-dimethyl-2,3-dihydro-1-benzofuran-7-yl)oxy]-3-methoxyphenyl}-2H,4H,5H,6H,7H-pyrazolo[3,4-b]pyridin-6-one], for which the IC50 is 0.01 to 0.1 µM.

Turning to `COc1cc(C2CC(=O)Nc3n[nH]cc32)ccc1Oc1ccc2c(c1)CCC2` (stereo not shown) [Example 49, 4-[4-(2,3-dihydro-1H-inden-5-yloxy)-3-methoxyphenyl]-2H, 4H, 5H, 6H,7H-pyrazolo[3,4-b]pyridin-6-one], the IC50 is 0.1 to 1 µM.

For `COc1cc(Oc2ccc(C3CC(=O)Nc4n[nH]cc43)cc2Br)cc(C(F)(F)F)c1` (stereo not shown) [Example 52, 4-{3-bromo-4-[3-methoxy-5-(trifluoromethyl)phenoxy]phenyl}-2H,4H,5H,6H,7H-pyrazolo[3,4-b]pyridin-6-one], the IC50 was 0.01 to 0.1 µM.

Regarding `CC(C)(C)c1cc(C#N)ccc1Oc1ccc(C2CC(=O)Nc3n[nH]cc32)cc1` (stereo not shown) [Example 53, 3-tert-butyl-4-(4-{6-oxo-2H,4H,5H,6H,7H-pyrazolo[3,4-b]pyridin-4-yl}phenoxy)benzonitrile], the IC50 is 0.01 to 0.1 µM.

With `COc1cc(Oc2ccc(C3CC(=O)Nc4n[nH]cc43)cc2)cc(C(F)(F)F)c1` (stereo not shown) [Example 54, 4-{4-[3-methoxy-5-(trifluoromethyl)phenoxy]phenyl}-2H,4H,5H,6H,7H-pyrazolo[3,4-b]pyridin-6-one], the IC50 is 0.01 to 0.1 µM.

With `Cc1cc(C2CC(=O)Nc3n[nH]cc32)ccc1Oc1ccc(C#N)cc1C(C)(C)C` (stereo not shown) [Example 55, 3-tert-butyl-4-(2-methyl-4-{6-oxo-2H,4H,5H,6H,7H-pyrazolo[3,4-b]pyridin-4-yl}phenoxy)benzonitrile], the IC50 was 0.01 to 0.1 µM.

As to `COc1cc(Oc2ccc(C3CC(=O)Nc4n[nH]cc43)cc2C)cc(C(F)(F)F)c1` (stereo not shown) [Example 56, 4-{4-[3-methoxy-5-(trifluoromethyl)phenoxy]-3-methylphenyl}-2H,4H,5H,6H,7H-pyrazolo[3,4-b]pyridin-6-one], the IC50 was 0.01 to 0.1 µM.

Take `COc1cc(Oc2ccc(C3CC(=O)Nc4n[nH]cc43)cc2F)cc(C(F)(F)F)c1` (stereo not shown) [Example 57, 4-{3-fluoro-4-[3-methoxy-5-(trifluoromethyl)phenoxy]phenyl}-2H,4H,5H,6H,7H-pyrazolo[3,4-b]pyridin-6-one]: the IC50 was 0.01 to 0.1 µM.

Take `O=C1CC(c2ccc(Oc3ccccc3S(F)(F)(F)(F)F)c(OC(F)(F)F)c2)c2c[nH]nc2N1` (stereo not shown) [Example 58, 4-{4-[2-(pentafluoro-λ^6-sulfanyl)phenoxy]-3-(trifluoromethoxy)phenyl}-2H,4H,5H,6H,7H-pyrazolo[3,4-b]pyridin-6-one]: the IC50 is 0.01 to 0.1 µM.

`O=C1CC(c2ccc(Oc3ccccc3S(F)(F)(F)(F)F)cc2)c2c[nH]nc2N1` (stereo not shown) [Example 59, 4-{4-[2-(pentafluoro-λ^6-sulfanyl)phenoxy]phenyl}-2H,4H,5H,6H,7H-pyrazolo[3,4-b]pyridin-6-one]: the IC50 is 0.1 to 1 µM.

With `O=C1CC(c2ccc(Oc3ccccc3C(F)(F)F)c(OC(F)(F)F)c2)c2c[nH]nc2N1` (stereo not shown) [Example 60, 4-[3-(trifluoromethoxy)-4-[2-(trifluoromethyl)phenoxy]phenyl]-2H,4H,5H,6H,7H-pyrazolo[3,4-b]pyridin-6-one], the IC50 is 0.1 to 1 µM.

Take `COc1cc(C2CC(=O)Nc3n[nH]cc32)ccc1Oc1ccc(C(=O)O)cc1C(C)(C)C` (stereo not shown) [Example 61, 3-tert-butyl-4-(2-methoxy-4-{6-oxo-2H,4H,5H,6H,7H-pyrazolo[3,4-b]pyridin-4-yl}phenoxy)benzoic acid]: the IC50 was 0.01 to 0.1 µM.

`COc1cc(C2CC(=O)Nc3n[nH]cc32)ccc1Oc1cc(C)cc(C)c1` (stereo not shown) [Example 64, 4-[4-(3,5-dimethylphenoxy)-3-methoxyphenyl]-2H,4H,5H,6H,7H-pyrazolo[3,4-b]pyridin-6-one]: the IC50 was 0.01 to 0.1 µM.

For `COc1cc(C2CC(=O)Nc3n[nH]cc32)ccc1Oc1ccc(C(F)(F)F)cc1C` (stereo not shown) [Example 65, 4-{3-methoxy-4-[2-methyl-4-(trifluoromethyl)phenoxy]phenyl}-2H,4H,5H,6H,7H-pyrazolo[3,4-b]pyridin-6-one], the IC50 is 0.1 to 1 µM.

For `COc1cc(C2CC(=O)Nc3n[nH]cc32)ccc1Oc1ccc(C)cc1C` (stereo not shown) [Example 66, 4-[4-(2,4-dimethylphenoxy)-3-methoxyphenyl]-2H,4H,5H,6H,7H-pyrazolo[3,4-b]pyridin-6-one], the IC50 was 0.1 to 1 µM.

Take `COc1cc(-c2cc(=O)[nH]c3n[nH]cc23)ccc1Oc1ccc(C#N)cc1C(F)(F)F` [Example 71, 4-(2-methoxy-4-{6-oxo-2H,6H,7H-pyrazolo[3,4-b]pyridin-4-yl}phenoxy)-3-(trifluoromethyl)benzonitrile]: the IC50 was 0.1 to 1 µM.

On to `COC(=O)C1C(=O)Nc2n[nH]cc2C1c1ccc(Oc2cc(C(F)(F)F)cc(C(F)(F)F)c2)c(OC)c1` (stereo not shown) [Example 72, methyl 4-{4-[3,5-bis(trifluoromethyl)phenoxy]-3-methoxyphenyl}-6-oxo-2H,4H,5H,6H,7H-pyrazolo[3,4-b]pyridine-5-carboxylate], for which the IC50 was 0.1 to 1 µM.

Turning to `COc1cc(C2CC(=O)Nc3c[nH]cc32)ccc1Oc1cc(C(F)(F)F)cc(C(F)(F)F)c1` (stereo not shown) [Example 76, 4-{4-[3,5-bis(trifluoromethyl)phenoxy]-3-methoxyphenyl},2H,3H,4H,6H-pyrrolo[3,4-b]pyridin-2-one], the IC50 is 0.01 to 0.1 µM.

Regarding `COc1cc(C2CC(=O)Nc3n[nH]cc32)ccc1Oc1cc(C(F)F)cc(C(F)(F)F)c1` (stereo not shown) [Example 77, 4-{4-[3-(difluoromethyl)-5-(trifluoromethyl)phenoxy]-3-methoxyphenyl}-2H,4H,5H,6H,7H-pyrazolo[3,4-b]pyridin-6-one], the IC50 is 0.01 to 0.1 µM.

With `COc1cc(C2CC(=O)Nc3n[nH]cc32)ccc1Oc1ccc(C(F)(F)F)cc1C(F)F` (stereo not shown) [Example 78, 4-{4-[2-(difluoromethyl)-4-(trifluoromethyl)phenoxy]-3-methoxyphenyl}-2H,4H,5H,6H,7H-pyrazolo[3,4-b]pyridin-6-one], the IC50 is 0.01 to 0.1 µM.
